From PubChem BioAssay AID2060895 (Molecular Pharmacology Branch, DTP, NCI, 2025)
“And” between values parts separate entries of the source, which are not always exact repeats. Equal values may be shown once.

System: PDC 899932-113-R3-J6 complex spheroid viability
Assay: Anticancer human tumor 899932-113-R3-J6-PDC patient-derived melanoma cell line growth inhibition [RAS]
Conditions: for viability, T/C: stronger effect = lower value
In short: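 Tumour cells grown as complex spheroids with HUVEC endothelial cells and mesenchymal stem cells, treated with RAS pathway inhibitor combinations. Each agent spans half-log steps from near clinical Cmax, or 10 microM where Cmax is unknown.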
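Throughout, for viability, T/C: spheroids exposed to agents for seven days before readout; 100% = DMSO vehicle control wells.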

With `Cc1nc(N2CCC3(CC2)COC(C)C3N)c(CO)nc1Sc1ccnc(N)c1Cl` (centres undefined) + CCn1c(-c2cc(N3CCN(C)CC3)cnc2C(C)OC)c2c3cc(ccc31)-c1csc(n1)CC(NC(=O)C1CC1C)C(=O)N1CCCC(N1)C(=O)OCC(C)(C)C2 as the compound, how does the IC50 (curve of first compound, second compound 0.000949 µM) read?
The IC50 was greater than 10 µM.

What about the IC50 (curve of first compound, second compound 0.003 µM) of the same compound?
Its IC50 is less than 0.0316 µM.

What about the IC50 (curve of first compound, second compound 0.00949 µM) of the same compound?
The IC50 was less than 0.0316 µM.

And the IC50 (curve of first compound, second compound 0.03 µM)?
The IC50 was less than 0.0316 µM.

And the IC50 (curve of first compound, second compound 0.0949 µM)?
The IC50 was less than 0.0316 µM.

And the IC50 (curve of first compound, second compound 0.3 µM)?
Its IC50 is less than 0.0316 µM.

And the viability, T/C (second compound 0.000949 µM, first compound 0.0316 µM)?
The viability, T/C was 70.1%.

And the viability, T/C (second compound 0.000949 µM, first compound 0.1 µM)?
The viability, T/C was 71.2%.

What about the viability, T/C (second compound 0.000949 µM, first compound 0.316 µM) of the same compound?
Its viability, T/C is 76.8%.

And the viability, T/C (second compound 0.000949 µM, first compound 1 µM)?
The viability, T/C was 78.6%.

What about the viability, T/C (second compound 0.000949 µM, first compound 3.16 µM) of the same compound?
The viability, T/C was 80%.

And the viability, T/C (second compound 0.000949 µM, first compound 10 µM)?
Its viability, T/C is 83%.

And the viability, T/C (second compound 0.003 µM, first compound 0.0316 µM)?
Its viability, T/C is 29.8%.

What about the viability, T/C (second compound 0.003 µM, first compound 0.1 µM) of the same compound?
Its viability, T/C is 29.9%.

And the viability, T/C (second compound 0.003 µM, first compound 0.316 µM)?
The viability, T/C was 30.1%.

What about the viability, T/C (second compound 0.003 µM, first compound 1 µM) of the same compound?
The viability, T/C was 31.8%.

What about the viability, T/C (second compound 0.003 µM, first compound 3.16 µM) of the same compound?
The viability, T/C was 38.8%.

And the viability, T/C (second compound 0.003 µM, first compound 10 µM)?
Its viability, T/C is 35.3%.

And the viability, T/C (second compound 0.00949 µM, first compound 0.0316 µM)?
Its viability, T/C is 3.52%.

And the viability, T/C (second compound 0.00949 µM, first compound 0.1 µM)?
Its viability, T/C is 3.03%.

And the viability, T/C (second compound 0.00949 µM, first compound 0.316 µM)?
The viability, T/C was 2.45%.

And the viability, T/C (second compound 0.00949 µM, first compound 1 µM)?
Its viability, T/C is 2.29%.

What about the viability, T/C (second compound 0.00949 µM, first compound 3.16 µM) of the same compound?
Its viability, T/C is 2.72%.

And the viability, T/C (second compound 0.00949 µM, first compound 10 µM)?
The viability, T/C was 2.76%.

And the viability, T/C (second compound 0.03 µM, first compound 0.0316 µM)?
Its viability, T/C is 2.9%.

And the viability, T/C (second compound 0.03 µM, first compound 0.1 µM)?
The viability, T/C was 2.41%.

And the viability, T/C (second compound 0.03 µM, first compound 0.316 µM)?
The viability, T/C was 2.2%.

What about the viability, T/C (second compound 0.03 µM, first compound 1 µM) of the same compound?
Its viability, T/C is 2.42%.

And the viability, T/C (second compound 0.03 µM, first compound 3.16 µM)?
Its viability, T/C is 1.4%.

What about the viability, T/C (second compound 0.03 µM, first compound 10 µM) of the same compound?
Its viability, T/C is 1.8%.

What about the viability, T/C (second compound 0.0949 µM, first compound 0.0316 µM) of the same compound?
The viability, T/C was 2.84%.

And the viability, T/C (second compound 0.0949 µM, first compound 0.1 µM)?
Its viability, T/C is 2.97%.

What about the viability, T/C (second compound 0.0949 µM, first compound 0.316 µM) of the same compound?
Its viability, T/C is 1.92%.

What about the viability, T/C (second compound 0.0949 µM, first compound 1 µM) of the same compound?
Its viability, T/C is 2.03%.

What about the viability, T/C (second compound 0.0949 µM, first compound 3.16 µM) of the same compound?
The viability, T/C was 1.67%.

What about the viability, T/C (second compound 0.0949 µM, first compound 10 µM) of the same compound?
The viability, T/C was 0.79%.

And the viability, T/C (second compound 0.3 µM, first compound 0.0316 µM)?
The viability, T/C was 2.22%.

And the viability, T/C (second compound 0.3 µM, first compound 0.1 µM)?
The viability, T/C was 2.77%.

And the viability, T/C (second compound 0.3 µM, first compound 0.316 µM)?
Its viability, T/C is 1.95%.

And the viability, T/C (second compound 0.3 µM, first compound 1 µM)?
Its viability, T/C is 2.27%.

And the viability, T/C (second compound 0.3 µM, first compound 3.16 µM)?
Its viability, T/C is 1.64%.

What about the viability, T/C (second compound 0.3 µM, first compound 10 µM) of the same compound?
Its viability, T/C is 1.71%.

What does the source list for `NC1c2ccccc2OC12CCN(c1cnc3c(N4CCCc5ncccc54)n[nH]c3n1)CC2` (centres undefined)?
viability, T/C (compound 0.0316 µM): 114% [middle of 4 runs]; viability, T/C (compound 0.1 µM): 106% [middle of 4 runs]; viability, T/C (compound 0.316 µM): 115% [middle of 4 runs]; viability, T/C (compound 1 µM): 112% [middle of 4 runs]; viability, T/C (compound 3.16 µM): 114% (2×) and 102% and 108%; viability, T/C (compound 10 µM): 105% (2×) and 86.2% and 87.2%; IC50 (curve of compound): > 10 µM
